Literature values as cited in patent US20260232672A1, “COMPOSITIONS AND METHODS OF TREATING FEMALE SEXUAL DYSFUNCTION AND FEMALE SEXUAL AROUSAL DISORDER” (Daré Bioscience, Inc., priority 2023, published 2026).

Tested on: pre- and postmenopausal women afflicted with broad-spectrum FSD
Conditions: oral

Question: For CCCc1nn(C)c2c(=O)[nH]c(-c3cc(S(=O)(=O)N4CCN(C)CC4)ccc3OCC)nc12.O=C(O)CC(O)(CC(=O)O)C(=O)O [oral sildenafil citrate, 1-[4-ethoxy-3-(6,7-dihydro-1-methyl-7-oxo-3-propyl-1H-pyrazolo[4,3-d]pyrimidin-5-yl)phenylsulfonyl]-4-methylpiperazine citrate salt], which “rates of side effects” value (doses 25 mg-100 mg, previous clinical trials in women) is on record?
Answer: high rates of side effects

Question: What about the efficacy versus placebo (published placebo-controlled trials) of the same molecule?
Answer: marginal efficacy versus placebo
